# Experimental data from ChEMBL document CHEMBL2146452, “Creation of readily accessible and orally active analogue of cortistatin a” (ACS Med Chem Lett, 2012).
# The source made the active and inactive calls. The rule behind the calls is not given here.
# What was measured:
# HUVEC = experiment: Antiproliferative activity against HUVEC after 72 hrs by WST8 assay; format: functional, cell-based; conditions: Homo sapiens
# [1] = Antiproliferative activity against human KB3-1 cells after 72 hrs by WST8 assay; format: cell-based; conditions: KB 3-1, 72 h
# KB 3-1 = experiment: Selectivity index, ratio of IC50 for human KB3-1 cells to IC50 for HUVEC
# CCRF S-180 [2] = experiment: Antitumor activity against mouse S180 cells xenografted in po dosed ddY mouse assessed as tumor growth inhibition; format: functional, organism-based
# [3] = Antiproliferative activity against mouse Neuro2a cells; format: cell-based; conditions: N2a
# K562 = experiment: Antiproliferative activity against human K562 cells; format: cell-based
# NHDF = experiment: Antiproliferative activity against human NHDF cells; format: cell-based
# CCRF S-180 [4] = experiment: Antitumor activity against mouse S180 cells xenografted in ddY mouse assessed as tumor growth inhibition at >25 mg/kg, po administered QOD for 14 days relative to vehicle-treated control; format: functional
# Mus musculus [5] = experiment: Toxicity in S180 cells xenografted ddY mouse assessed as diarrhea up to 100 mg/kg, po administered QOD for 14 days; format: organism-based, CCRF S-180; parameters: dose 100 mg/kg, route oral; conditions: in vivo, 336 h
# Mus musculus [6] = experiment: Antiangiogenic activity in ddY mouse assessed as inhibition of bFGF-induced capillary formation in matrigel plug measured as hemoglobin level at 5 to 25 mg/kg, po administered QOD for 10 days by Drabkin reagent-based assay; format: functional, organism-based
# Mus musculus [7] = experiment: Toxicity in S180 cells xenografted ddY mouse assessed as body weight loss up to 100 mg/kg, po administered QOD for 14 days relative to vehicle-treated control; format: organism-based, CCRF S-180; parameters: dose 100 mg/kg, route oral; conditions: in vivo, 336 h
# CCRF S-180 [8] = experiment: Antitumor activity against mouse S180 cells xenografted in ddY mouse assessed as tumor growth inhibition at >5 mg/kg, po administered QOD for 14 days relative to vehicle-treated control; format: functional, organism-based
IC50 (K562) [µM],Compound,IC50 (HUVEC) [µM],IC50 [1] [µM],Ratio IC50 (KB 3-1),growth inhibition (GI) (CCRF S-180 [2]),IC50 [3] [µM],IC50 (NHDF) [µM],growth inhibition (GI) (CCRF S-180 [4]) [%],Activity (Mus musculus [5]),inhibition (Mus musculus [6]),Activity (Mus musculus [7]),growth inhibition (GI) (CCRF S-180 [8])
,CN(C)c1ccc(/C=C2/CC[C@@]3(C)[C@@H](CC[C@@H]3c3ccc4ccncc4c3)C2)cc1,15,20,1.5,,,,,,,,
6,C[C@]12C=CC3=CC4=C(CCCC4=O)O[C@H]3[C@@H]1CC[C@@H]2c1ccc2ccncc2c1,0.1,10.5,>100,Active,10.5,10.5,,,,,
,CN(C)C1CC=C(/C=C2/CC[C@@]3(C)[C@@H](CC[C@@H]3c3ccc4ccncc4c3)C2)CC1 (some centres undefined),2,18,9,,,,,,,,
5,C[C@]12CCC3=CC4=C(CCCC4=O)O[C@H]3[C@@H]1CC[C@@H]2c1ccc2ccncc2c1,0.035,10.5,>100,,10.5,4,90,Non-toxic,Active,Non-toxic,Active
